The test system of test [1] is BT474 (EGFR overexpression) cells. As to the kind of experiment: Cell proliferation assay (MTS), BT474. It counts as cell-based. As to conditions: Homo sapiens, BT-474, 168 h, 7 d incubation. On the procedure: (§1) Cell Proliferation Asssay
(§2) Materials and Preparation of Reagents
(§3) MTS testing kit was purchased from Promega. […] Dimethyl sulfoxide (DMSO) was purchased from Sigma.
(§4) Inhibition Activity of Cell Proliferation
(§5) In this assay, inhibition of EGFR and ErbB2 was detected by the inhibition of BT474 and N87 cells proliferation. BT474 cells were cultured in culture flasks to 40-80% confluence in DMEM plus 10% fetal bovine serum. […] Cells were collected and plated onto 96-well plates at desired cell density (BT474: 1000 cells/well; N87: 1000 cells/well). BT474 plates were incubated 48 h at 37° C., with 5% CO2 to adhere. N87 plates were incubated overnight at 37° C., with 5% CO2 to adhere. […] Place BT474 plates at 37° C., with 5% CO2 for 7d. Place N87 plates at 37° C., with 5% CO2 for 72 h. After removing the medium, 20 μl MTS/100 μl medium mixture solution were added to each well and incubate the plates for exactly 2 hours. Measure absorbance at 490 nm and 650 nm (reference wavelength). IC50 was calculated using GraphPad Prism 5.0.

In test [2] the test system is N87 (EGFR and ErbB2 overexpression) cells. As to the kind of experiment: Cell proliferation assay (MTS), N87. It counts as cell-based. As to conditions: 72 h incubation. On the procedure: as §1, §2, §3, §4, §5
The subject of a further test is NCI-N87 tumor cells. In words: N87 tumor in vivo study. As to conditions: for Average Tumor Volume Day 21 / Inhibition rate / T/C: Day 21; for Average Tumor Volume Day 0: Day 0 (baseline). Set-up: species or system Female BALB/cA-nude mice. On the procedure: Female BALB/cA-nude mice were implanted with NCI-N87 tumor cells. Tumor measurements were recorded twice a week. Randomize animals to groups (Day 0) when tumors reached an average size of 60-150 mm^3. Group size was 6 mice. Test compound was administered p.o. once daily for 21 days. Tumor inhibition values were determined at Day 21.
Tumor volume (V) was calculated as follow: V=½×a×b, where a and b are the length and width of the tumor respectively. Relative tumor proliferation rate was calculated as follow: T/C (%)=(T−T0)/(C−C0)×100, where T and C are the tumor volume of test compound group and control group on Day 21, T0 and C0 are the tumor volume of test compound group and control group on Day 0.

Where [3] appears, read: 2 mg/kg p.o. once daily for 21 days.
The mark [4] stands for this setting: 5 mg/kg p.o. once daily for 21 days.

As a reminder, the IC50 is the concentration needed to halve the response being measured. Read a low IC50 as greater potency in that assay. `COC[C@@H]1CCN1C/C=C/C(=O)Nc1cc2c(Nc3ccc(F)c(Cl)c3)ncnc2cc1OC` [Example 3, (S,E)-N-(4-(3-chloro-4-fluorophenylamino)-7-methoxyquinazolin-6-yl)-4-(2-(methoxymethyl)azetidin-1-yl)but-2-enamide]: the values for the IC50 in test [1] and in test [2] were 21.5 nM and 14.2 nM, respectively.

As for `COC[C@H]1CCN1C/C=C/C(=O)Nc1cc2c(Nc3ccc(F)c(Cl)c3)ncnc2cc1OC` [Example 2, (R,E)-N-(4-(3-chloro-4-fluorophenylamino)-7-methoxyquinazolin-6-yl)-4-(2-(methoxymethyl)azetidin-1-yl)but-2-enamide], the IC50 in test [1] and in test [2] was 1.6 nM in each case. The “Average Tumor Volume Day 21” value was 584.4 ± 71.3 mm^3 in the test with NCI-N87 tumor cells (setting [3]) and 54.3 ± 3.8 mm^3 in the test with NCI-N87 tumor cells (setting [4]). Further, the Inhibition rate in the test on NCI-N87 tumor cells (setting [3]) came out at 61%; in the test on NCI-N87 tumor cells (setting [4]), 154%. Moreover, the T/C in the test on NCI-N87 tumor cells (setting [3]) is 39%; in the test with NCI-N87 tumor cells (setting [4]) it was −54%. For the same molecule, the “Average Tumor Volume Day 0” value in the test with NCI-N87 tumor cells (2 mg/kg p.o. once daily) was 113.3 ± 4.4 mm^3; in the test with NCI-N87 tumor cells (5 mg/kg p.o. once daily) it was 117.6 ± 7.2 mm^3.

On to `O=C(/C=C/CN1CCC1CO)Nc1cc2c(Nc3ccc(F)c(Cl)c3)ncnc2cc1O[C@H]1CCOC1` (stereo partly drawn) [Example 11, (E)-N-(4-(3-chloro-4-fluorophenylamino)-7-((S)-tetrahydrofuran-3-yloxy)quinazolin-6-yl)-4-(2-(hydroxymethyl)azetidin-1-yl)but-2-enamide], for which the IC50 worked out at 3.9 nM in test [1] and 9.6 nM in test [2].
